One data set has as its system melanin. Also on record: method as in PMID 23385800. The note with it: cited from earlier work.
Another data set deals with neovascular AMD. To be noted: eye‐drop formulations; cited from earlier work.
For data set [1], the system named is VEGF‐induced fluorescein leakage. More on the design: method as in PMID 23169884. The note with it: ocular instillation in rabbits; cited from earlier work.
Another data set has as its system laser‐induced CNV. The data set can be described thus: Laser‐induced monkey CNV model. The note with it: for Change in incidence of Grade 4 lesions between Day‐1 and Day35: Fisher's exact test, Day‐1 vs Day 35; for Percentage of Grade 4 lesion: aflibercept 500 μg/eye intravitreal once, mean of 6 eyes.
The nature of data set [2]: Pharmacokinetic study in rats after single ocular instillation.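 As to all read-outs here: drug levels in plasma and homogenized choroid/sclera and retina quantified by LC/MS/MS, parameters derived from mean concentrations, t1/2 from terminal log-linear slope, AUC via linear trapezoids.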 To be noted: rat; for AUC0‐t / AUC0‐∞ / AUC: single ocular instillation, 10 μL/eye; for AUC0‐t / AUC0‐∞ / AUC / Concentration: regorafenib 21.2 mg/mL or pazopanib 4.9 mg/mL; for concentration at 0.5 h: topical; for half-life / Tmax / AUC: topical or ocular; for Concentration: choroid/sclera, 0.01 mL; for choroid/sclera concentration: 0.5 hours after administration.
Protocol: (§2) The both eyes (dosed eye and nondosed eye) were collected and washed by water, and then the eye tissues (the choroid/sclera and retina) were collected.
(§3) An aliquot of acetonitrile solution containing an internal standard was added to the plasma sample and mixed. After centrifugation, supernatant was mixed with 10 mmol/L ammonium acetate solution to prepare a sample for determination of drug concentration by liquid chromatography‐tandem mass spectrometry (LC/MS/MS). An aliquot of 50 vol% methanol was added to the eye tissues, and then homogenized by a beads shocker to prepare homogenate samples. An aliquot of the acetonitrile solution containing the internal standard was added to the homogenate samples and mixed. After centrifugation, supernatant was mixed with 10 mmol/L ammonium acetate solution to prepare samples for the determination of drug concentrations.
(§4) LC/MS/MS system consisted of ACQUITY UPLC system (Waters Corporation) and QTRAP6500 (AB SCIEX) was used for the determination of drug concentrations. The prepared samples were separated by ACQUITY UPLC peptide BEH C18 column (1.7 µm, 2.1 × 50 mm) (Waters Corporation, Milford, MA), with mobile phase A: 10 mmol/L ammonium acetate solution and mobile phase B: acetonitrile. After injection of the prepared samples to LC/MS/MS, the samples were eluted (0.2 mL/minutes) with 30% B followed 0.10 minutes isocratic period; 3.90 minutes linear gradient to 70% B; 0.01 minutes linear gradient to 30% B; and 1.49 minutes isocratic period. Multiple reaction monitoring was performed by using an atmospheric pressure chemical ionization probe, and monitor ion of regorafenib and pazopanib were 482.958/270.000 (m/z, Q1/Q3) and 438.184/356.900 (m/z, Q1/Q3), respectively.
(§5) The pharmacokinetic parameters of regorafenib and pazopanib in the eye tissues and plasma were calculated by average concentrations in the eye tissues and plasma. Maximum concentration (Cmax) and the time to reach Cmax (tmax) were obtained directly from the observed values. Log‐transformed concentrations were plotted against time. The elimination rate constant (ke) was estimated by linear least‐squares method using the last 2 or 3 observed data points. Apparent half‐life (t1/2) was obtained as ln2/ke. Area under the concentration vs time curve (AUC) from time 0 to the observed data point (AUC0‐t) was calculated using the linear trapezoidal method. AUC after the last data point was estimated by extrapolating with the ke and added up with AUC0‐t to calculate AUC from time 0 to infinity (AUC0‐∞).

The next data set can be described thus: in vivo. To be noted: rat, topical or ocular; for half-life: t1/2, rat.
For data set [3], the system named is choroidal neovascularization. More on the design: method as in PMID 21620822. To be noted: after ocular instillation in rats; cited from earlier work.
The nature of data set [4]: Pharmacokinetic study (ocular distribution) in monkeys after single ocular instillation. To be noted: monkey, 4 h, regorafenib 17.1 mg/mL (50 μL/eye) or pazopanib 5.0 mg/mL (30 μL/eye). Here is the method:
(§1) In the rabbit and monkey studies, sample preparation and determination of drug concentrations were performed in the same manner for the rat pharmacokinetic study.

Data set [5] in a line: Pharmacokinetic study in rabbits after single ocular instillation. To be noted: rabbit, choroid/retina, 1.5 h, regorafenib 24.1 mg/mL or pazopanib 5.0 mg/mL, 0.02 mL. How it is done:
as §1

Setting [6] is: choroid/sclera of the dosed eye.
The mark [7] stands for this setting: in vivo, choroid/sclera of dosed eye, single ocular instillation, regorafenib 21.2 mg/mL or pazopanib 4.9 mg/mL, 10 μL/eye.
The mark [8] stands for this setting: in vivo, plasma, single ocular instillation, regorafenib 21.2 mg/mL or pazopanib 4.9 mg/mL, 10 μL/eye.

The source of these data is article PMC6864407 (Pharmacology Research & Perspectives, 2019).

Protocol for in vivo: as §2, §3, §4, §5
Protocol for laser‐induced CNV: Pharmacological study in laser‐induced monkey CNV model was conducted by referring to and optimizing the previous researches.28, 29, 30 Animals were allocated to groups to minimize bias in the incidence and severity of CNV lesions and body weight between the groups.
After the induction of mydriasis by instillation of Mydrin‐P ophthalmic solution has been confirmed, animals were anesthetized by intramuscular injection with a mixture solution of ketamine hydrochloride/xyladine (7/1, v/v). A fundus contact lens (Centralis Direct; Volk Optical Inc) was attached to the cornea with Scopisol solution and the position of the macula was confirmed. Laser was irradiated on the macula to induce CNV (8 sites per eye, 6 eyes per group). The laser irradiation conditions were as follows; wavelength: 532 nm, spot size: 80 μm, irradiation time: 0.1 seconds, and laser output: 1000 mW. The laser irradiation was conducted 21 days before the initiation of ocular instillation of test articles.
Aflibercept (500 μg/eye) was administered by intravitreal injection to the animals once 22 days after the laser irradiation.
In the aflibercept dosed group, fluorescein fundus angiography and CNV grade evaluation were conducted at the same time points in eye‐drops dosed groups.
Fluorescite Intravenous Injection 500 mg was administered into the cephalic vein under mydriasis and anesthesia. Photographs of fundus were taken with a fundus camera (VX‐10α; Kowa Co., Ltd., Aichi, Japan) approximately 1, 3, and 5 minutes after the administration of fluorescein. Each CNV lesion was graded as follows; Grade 1: no hyperfluorescence, Grade 2: hyperfluorescence without leakage, Grade 3: hyperfluorescence in the early (1 minute after administration of fluorescein) or midtransit (3 minutes after administration of fluorescein) images and late (5 minutes after administration of fluorescein) leakage, Grade 4: bright hyperfluorescence in the early or midtransit images and late leakage beyond the treated area in reference to the previous studies.28, 29, 30 The incidences of Grade 1, Grade 2, Grade 3 and Grade 4 lesions in the each eye (6 eyes per group) were calculated by the following equation, the incidence of grade lesion (%) = the number of grade lesions/ 8 × 100. The mean value of the incidences of Grade 4 lesions was calculated from 6 individual data in each group.
Fisher's exact test was performed for the incidence of Grade 4 lesions between Day‐1 and Day 35 in each group. MiTOX System (Mitsui E&S Systems Research Inc (former company name; Mitsui Zosen Systems Research Inc) was used for the statistical analysis at a two‐sided significance level of 5%.

For orientation: half-life means the time in which the quantity being followed falls by half. The Tmax is the time from dosing to the highest level. By AUC is commonly meant concentration integrated over time. Regarding `Cc1ccc(Nc2nccc(N(C)c3ccc4c(C)n(C)nc4c3)n2)cc1S(N)(=O)=O.Cl` [Pazopanib, 5‐[[4‐[(2,3‐dimethylindazol‐6‐yl)‐methylamino]pyrimidin‐2‐yl]amino]‐2‐methylbenzenesulfonamide hydrochloride], the Binding to melanin result with melanin was “strongly binds to melanin”. Also, the “Clinical efficacy of eye‐drop formulation in neovascular AMD” value with neovascular AMD is “lack of efficacy”. Also, the “Suppression of VEGF‐induced fluorescein leakage in the posterior eye tissues” value in [1] is “failed to suppress”. In the data set with laser‐induced CNV, the “Change in incidence of Grade 4 lesions between Day‐1 and Day35” value is listed as “no significant difference”. Further, the “AUC0‐t” value was 42 100 h × ng/g in data set [2] (choroid/sclera of dosed eye) and 3450 ng·h/g in [2] (retina of dosed eye). The entries for the “AUC0‐∞” value in [2] (choroid/sclera of dosed eye) and in [2] (retina of dosed eye) were 112 000 h × ng/g and 6660 ng·h/g, respectively. The concentration at 0.5 h came out at 293 ng/g in data set [2] (setting [6]) and 11.3 ng/g in data set [2] (choroid/sclera of the nondosed eye). Moreover, the half-life is 245 h in data set [2] (setting [6]); 20.1 h in [2] (plasma); 159 h in data set [2] (retina of the dosed eye, 4.9 mg/mL (10 μL/eye)). Also, the Tmax in [2] (plasma) amounted to 0.5 h; in data set [2] (retina of the dosed eye), 120 h; in the data set “in vivo” (setting [6]), 4 h. Also, the area under the curve (AUC) in [2] (plasma, AUC0‐t) stood at 1280 ng·h/mL; in data set [2] (plasma, AUC0‐∞) it was 1300 ng·h/mL. Also, the “Effect on angiogenesis and vascular hyperpermeability” value in data set [3] was “reduced angiogenesis and vascular hyperpermeability”. Besides, the Concentration result in [4] (cornea, nondosed eye) is listed as “BLQ (<1) ng/g”.
The term Cmax denotes the peak of the concentration-time curve. In the case of `CNC(=O)c1cc(Oc2ccc(NC(=O)Nc3ccc(Cl)c(C(F)(F)F)c3)c(F)c2)ccn1.O` [Regorafenib, 4‐[4‐ ({[4‐Chloro‐3‐(trifluoromethyl)phenyl]carbamoyl}amino)‐3‐fluorophenoxy]‐N‐methylpyridine‐2‐carboxamide monohydrate], the “Clinical efficacy of eye‐drop formulation in neovascular AMD” value in the data set with neovascular AMD is “lack of efficacy”. The Concentration result in data set [5] (dosed eye) is “BLQ (<1) ng/g”; in [5] (nondosed eye), “BLQ (<1) ng/g”; in data set [2] (dosed eye, 1.5 h), 552 ng/g; in [2] (dosed eye, 4 h) it was 340 ng/g; in [2] (nondosed eye, 1.5 h) it was 29.1 ng/g; in data set [2] (nondosed eye, 4 h), 72.3 ng/g. The Concentration result in [4] (choroid, nondosed eye) was “BLQ (<3) ng/g”; in data set [4] (cornea, dosed eye), 350 ng/g; in data set [4] (cornea, nondosed eye) it was “BLQ (<3) ng/g”; in data set [4] (iris/ciliary body, dosed eye), 49.4 ng/g; in [4] (iris/ciliary body, nondosed eye), “BLQ (<3) ng/g”; in data set [4] (retina, dosed eye) it was “BLQ (<3) ng/g”. Further, in data set [4] (retina, nondosed eye), the Concentration entry is reported as “BLQ (<3) ng/g”. For the same molecule, the “AUC0‐t” value in [2] (choroid/sclera of dosed eye) was 15 300 h × ng/g; in [2] (retina of dosed eye), 517 ng·h/g. For the same molecule, the “AUC0‐∞” value in data set [2] (choroid/sclera of dosed eye) was 16 400 h × ng/g. Besides, the choroid/sclera concentration in [2] (dosed eye) is on record as 1310 ng/g; in data set [2] (nondosed eye), 129 ng/g. Further, the AUC in the data set “in vivo” (in vivo, AUC0‐t, plasma, single ocular instillation, regorafenib 21.2 mg/mL or pazopanib 4.9 mg/mL, 10 μL/eye) was 1010 ng·h/mL; in the data set “in vivo” (in vivo, AUC0‐∞, plasma, single ocular instillation, regorafenib 21.2 mg/mL or pazopanib 4.9 mg/mL, 10 μL/eye), 1060 ng·h/mL. Besides, the Cmax in “in vivo” (setting [7]) is 1310 ng/g; in “in vivo” (setting [8]), 38.6 ng/mL; in “in vivo” (in vivo, retina of dosed eye, single ocular instillation, regorafenib 21.2 mg/mL or pazopanib 4.9 mg/mL, 10 μL/eye) it was 28 ng/g. The figures for the half-life in “in vivo” (setting [7]) and in “in vivo” (setting [8]) were 29.7 h and 23.9 h, respectively. Further, the time of peak concentration (Tmax) in the data set “in vivo” (in vivo, tmax) turned out to be 0.5 h; in “in vivo” (in vivo, tmax, plasma, single ocular instillation, regorafenib 21.2 mg/mL or pazopanib 4.9 mg/mL, 10 μL/eye), 7 h; in the data set “in vivo” (in vivo, tmax, retina of dosed eye, single ocular instillation, regorafenib 21.2 mg/mL or pazopanib 4.9 mg/mL, 10 μL/eye), 7 h.
As to “Aflibercept: 40 mg/mL EYLEA Injection For Intravitreal Injection; anti‐VEGF agent, positive control”, the “Percentage of Grade 4 lesion” value is 4.2% in the data set with laser‐induced CNV (Day 8, pazopanib eye‐drops 5.0 mg/mL four times daily); 4.2% in the data set with laser‐induced CNV (Day 15, pazopanib eye‐drops 5.0 mg/mL four times daily); 4.2% in the data set on laser‐induced CNV (Day 22, pazopanib eye‐drops 5.0 mg/mL four times daily); 4.2% with laser‐induced CNV (Day 29, pazopanib eye‐drops 5.0 mg/mL four times daily). Moreover, in the data set with laser‐induced CNV, the “Change in incidence of Grade 4 lesions between Day‐1 and Day35” value is “significant efficacy had been maintained until Day35”.
